The text below walks through data of US6376497B1, “Antifungal azole derivatives having a fluorinated vinyl group and process for preparing same” (Korea Research Institute of Chemical Technology, priority 1999, dated 2002).

Experiment in all cases: In vitro antifungal activity, microbroth dilution MIC
Common to all, as to format: cell-based
On the technique in general: In broth dilution the organism is exposed to a series of concentrations in liquid medium.

Assay [1] deals with Aspergillus furnigatus B. 19119. As to conditions: 4 to 48 hours; for Minimal inhibitory concentration(MIC), A furnigatus B. 19119: RPMI-1640, 35° C., no growth observed. The method, boiled down:
(§1)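 Broth microdilution adapted from NCCLS M27, in RPMI-1640 with 0.165 M MOPS, pH 7.0. Yeast or mould inoculum at 2×10^3 CFU/ml was mixed 1:1 with DMSO-derived compound solutions (200 to 0.10 μg/ml before mixing) and incubated at 35 °C for 4 to 48 h. MIC was the concentration showing no growth.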

The subject of assay [2] is Aspergillus niger A. 16404. As to conditions: 4 to 48 hours; for Minimal inhibitory concentration(MIC), A. niger A. 16404: RPMI-1640, 35° C., no growth observed. The method, boiled down: as §1
The test system of the next assay is Candida krusei K. 11655. As to conditions: 4 to 48 hours; for Minimal inhibitory concentration(MIC), C. krusei K. 11655: RPMI-1640, 35° C., no growth observed. In outline: as §1
In assay [3] the test system is Trichophyton mentagrophytes B. 32663. As to conditions: 4 to 48 hours; for Minimal inhibitory concentration(MIC), T. mentagrophytes B. 32663: RPMI-1640, 35° C., no growth observed. The method, boiled down: as §1
Assay [4] deals with Candida albicans A. 10231. As to conditions: 4 to 48 hours; for Minimal inhibitory concentration (MIC): C. albicans A. 10231, RPMI-1640, 35° C. In outline: as §1
Assay [5] concerns Trichophyton mentagrophytes A. 9129. As to conditions: 4 to 48 hours; for Minimal inhibitory concentration(MIC), T. mentagrophytes A. 9129: RPMI-1640, 35° C., no growth observed. In outline: as §1
Assay [6] relates to Cryptococcus neoformans IFM. 40092. As to conditions: 4 to 48 hours; for Minimal inhibitory concentration(MIC), Cry. neoformans IFM. 40092: RPMI-1640, 35° C., no growth observed. In outline: as §1
Assay [7] deals with Torulopsis glabrata B. 16205. As to conditions: 4 to 48 hours; for Minimal inhibitory concentration(MIC), T. glabrata B. 16205: RPMI-1640, 35° C., no growth observed. The method, boiled down: as §1
The test system of assay [8] is Cryptococcus neoformans A. 34144. As to conditions: 4 to 48 hours; for Minimal inhibitory concentration(MIC), Cry. neoformans A. 34144: RPMI-1640, 35° C., no growth observed. In outline:
as §1

Assay [9] has as its system Candida albicans IFO. 1385. As to conditions: 4 to 48 hours; for Minimal inhibitory concentration(MIC), C. albicans IFO. 1385: RPMI-1640, 35° C., no growth observed. In outline:
as §1

In assay [10] the test system is Candida pseudotropicalis K. 11658. As to conditions: 4 to 48 hours; for Minimal inhibitory concentration(MIC), C. pseudotropicalis K. 11658: RPMI-1640, 35° C., no growth observed. The method, boiled down:
as §1

In another assay the test system is Candida albicans C1-2. As to conditions: 4 to 48 hours; for Minimal inhibitory concentration (MIC): C. albicans C1-2, RPMI-1640, 35° C. In outline:
as §1

In assay [11] the test system is Cryptococcus neoformans B. 42419. As to conditions: 4 to 48 hours; for Minimal inhibitory concentration(MIC), Cry. neoformans B. 42419: RPMI-1640, 35° C., no growth observed. In outline: as §1
Assay [12] has as its system Candida parapsitosis A. 7330. As to conditions: 4 to 48 hours; for Minimal inhibitory concentration(MIC), C. parapsitosis A. 7330: RPMI-1640, 35° C., no growth observed. The method, boiled down: as §1
Assay [13] concerns Candida tropicalis A. 13803. As to conditions: 4 to 48 hours; for Minimal inhibitory concentration(MIC), C. tropicalis A. 13803: RPMI-1640, 35° C., no growth observed. In outline:
as §1

Where [14] appears, read: RPMI-1640, 35° C., no growth observed.

Converted amounts (≈) assume the structure as drawn. Some results are limits rather than exact numbers.

For the compound `FC(=C(c1cc(Cl)cc(Cl)c1)C(F)(F)F)N1CCN(c2ccc(OCC3COC(Cn4ccnc4)(c4ccc(Cl)cc4Cl)O3)cc2)CC1` (mixture of isomers) [Ex. 136], in [1], the “Minimal inhibitory concentration(MIC), A furnigatus B. 19119” value is more than 100 µg/mL. In addition, the “Minimal inhibitory concentration(MIC), A. niger A. 16404” value in [2] is more than 100 µg/mL. Also, the “Minimal inhibitory concentration(MIC), C. krusei K. 11655” value in the assay on Candida krusei K. 11655 was more than 100 µg/mL. Besides, the “Minimal inhibitory concentration(MIC), T. mentagrophytes B. 32663” value in [3] is more than 100 µg/mL. Further, the “Minimal inhibitory concentration(MIC), C. albicans A. 10231” value in assay [4] (setting [14]) is more than 100 µg/mL. The “Minimal inhibitory concentration(MIC), T. mentagrophytes A. 9129” value in assay [5] was more than 100 µg/mL. The “Minimal inhibitory concentration(MIC), Cry. neoformans IFM. 40092” value in [6] turned out to be 1.56 µg/mL. The “Minimal inhibitory concentration(MIC), T. glabrata B. 16205” value in assay [7] is more than 100 µg/mL. For the same compound, the “Minimal inhibitory concentration(MIC), Cry. neoformans A. 34144” value in assay [8] is more than 100 µg/mL. In assay [9], the “Minimal inhibitory concentration(MIC), C. albicans IFO. 1385” value is more than 100 µg/mL. The “Minimal inhibitory concentration(MIC), C. pseudotropicalis K. 11658” value in [10] is more than 100 µg/mL. Besides, the “Minimal inhibitory concentration(MIC), C. albicans C1-2” value with Candida albicans C1-2 (setting [14]) is more than 100 µg/mL. The “Minimal inhibitory concentration(MIC), Cry. neoformans B. 42419” value in [11] was more than 100 µg/mL. In addition, in assay [12], the “Minimal inhibitory concentration(MIC), C. parapsitosis A. 7330” value was more than 100 µg/mL. Besides, the “Minimal inhibitory concentration(MIC), C. tropicalis A. 13803” value in assay [13] is more than 100 µg/mL.

With `COc1ccc(C=C(F)OCC2COC(Cn3cncn3)(c3ccc(Cl)cc3Cl)O2)cc1` (mixture of isomers) [Ex. 74], the “Minimal inhibitory concentration(MIC), A furnigatus B. 19119” value in [1] was more than 100 µg/mL. In assay [2], the “Minimal inhibitory concentration(MIC), A. niger A. 16404” value is more than 100 µg/mL. In addition, in the assay with Candida krusei K. 11655, the “Minimal inhibitory concentration(MIC), C. krusei K. 11655” value turned out to be 100 µg/mL. The “Minimal inhibitory concentration(MIC), T. mentagrophytes B. 32663” value in [3] was found to be 12.5 µg/mL. The “Minimal inhibitory concentration (MIC)” value (in [4]; in the assay with Candida albicans C1-2) was 100 µg/mL each time. In assay [5], the “Minimal inhibitory concentration(MIC), T. mentagrophytes A. 9129” value was determined as 12.5 µg/mL. The “Minimal inhibitory concentration(MIC), Cry. neoformans IFM. 40092” value in assay [6] turned out to be 0.78 µg/mL. Moreover, the “Minimal inhibitory concentration(MIC), T. glabrata B. 16205” value in assay [7] came to 50.0 µg/mL. Besides, the “Minimal inhibitory concentration(MIC), Cry. neoformans A. 34144” value in assay [8] was determined as 6.25 µg/mL. Also, in [9], the “Minimal inhibitory concentration(MIC), C. albicans IFO. 1385” value came out at 12.5 µg/mL. In [10], the “Minimal inhibitory concentration(MIC), C. pseudotropicalis K. 11658” value was 25.0 µg/mL. In assay [11], the “Minimal inhibitory concentration(MIC), Cry. neoformans B. 42419” value was 3.13 µg/mL. In addition, the “Minimal inhibitory concentration(MIC), C. parapsitosis A. 7330” value in assay [12] is more than 100 µg/mL. Besides, the “Minimal inhibitory concentration(MIC), C. tropicalis A. 13803” value in assay [13] was more than 100 µg/mL.

As for `FC(=Cc1cccc(Cl)c1)OCC1COC(Cn2ccnc2)(c2ccc(Cl)cc2Cl)O1` (stereo not drawn) [Ex. 13], the “Minimal inhibitory concentration (MIC)” value in assay [1] (A furnigatus B. 19119, RPMI-1640, 35° C.) was 1.56 µg/mL (≈ 3.22 µM); in assay [2] (A. niger A. 16404, RPMI-1640, 35° C.), 3.13 µg/mL (≈ 6.47 µM); in the assay on Candida krusei K. 11655 (C. krusei K. 11655, RPMI-1640, 35° C.), 25.0 µg/mL (≈ 51.7 µM); in assay [3] (T. mentagrophytes B. 32663, RPMI-1640, 35° C.) it was “≦0.10 μg/ml”; in assay [4], 6.25 µg/mL (≈ 12.9 µM); in assay [5] (T. mentagrophytes A. 9129, RPMI-1640, 35° C.), 0.78 µg/mL (≈ 1.61 µM). The “Minimal inhibitory concentration (MIC)” value in [6] (Cry. neoformans IFM. 40092, RPMI-1640, 35° C.) was “≦0.10 μg/ml”; in assay [7] (T. glabrata B. 16205, RPMI-1640, 35° C.), 6.25 µg/mL (≈ 12.9 µM); in assay [8] (Cry. neoformans A. 34144, RPMI-1640, 35° C.) it was 0.39 µg/mL (≈ 0.806 µM); in assay [9] (C. albicans IFO. 1385, RPMI-1640, 35° C.), 0.39 µg/mL (≈ 0.806 µM); in [10] (C. pseudotropicalis K. 11658, RPMI-1640, 35° C.), 1.56 µg/mL (≈ 3.22 µM); in the assay on Candida albicans C1-2, 3.13 µg/mL (≈ 6.47 µM). Also, the “Minimal inhibitory concentration (MIC)” value in [11] (Cry. neoformans B. 42419, RPMI-1640, 35° C.) was found to be 0.39 µg/mL (≈ 0.806 µM); in [12] (C. parapsitosis A. 7330, RPMI-1640, 35° C.), 50.0 µg/mL (≈ 103 µM); in [13] (C. tropicalis A. 13803, RPMI-1640, 35° C.) it was 50.0 µg/mL (≈ 103 µM).
